Data: patent US12371428B2 (Exelixis, Inc., priority 2019, dated 2025)

Key:
[1] = biological target: Met (phospho-Met, HGF-stimulated PC-3 prostate cancer cells) (Homo sapiens (Human), UniProt P08581); experiment: Met autophosphorylation ELISA in PC-3 cells (Example F); format: cell-based; details: cellular activity; Met autophosphorylation ELISA in PC-3 cells; read-out: c-Met IC50
Outline: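 IC50 values derive from a 4-parameter logistic fit of phospho-Met (panTyr) sandwich ELISA signals in PC-3 lysates, scaled between DMSO and reference-inhibitor wells. Cells, starved 3 h in serum-free medium, had 1 h compound exposure (8 doses, 0.3% DMSO) before 10 min stimulation with 100 ng/mL HGF.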

[2] = biological target: KDR (phospho-KDR, VEGF165-stimulated HUVEC cells) (Homo sapiens (Human), UniProt P35968); experiment: KDR autophosphorylation ELISA in HUVEC cells (Example G); format: cell-based; details: cellular activity; KDR autophosphorylation ELISA in HUVEC cells
Sequence of KDR (phospho-KDR, VEGF165-stimulated HUVEC cells) (P35968 20-1356): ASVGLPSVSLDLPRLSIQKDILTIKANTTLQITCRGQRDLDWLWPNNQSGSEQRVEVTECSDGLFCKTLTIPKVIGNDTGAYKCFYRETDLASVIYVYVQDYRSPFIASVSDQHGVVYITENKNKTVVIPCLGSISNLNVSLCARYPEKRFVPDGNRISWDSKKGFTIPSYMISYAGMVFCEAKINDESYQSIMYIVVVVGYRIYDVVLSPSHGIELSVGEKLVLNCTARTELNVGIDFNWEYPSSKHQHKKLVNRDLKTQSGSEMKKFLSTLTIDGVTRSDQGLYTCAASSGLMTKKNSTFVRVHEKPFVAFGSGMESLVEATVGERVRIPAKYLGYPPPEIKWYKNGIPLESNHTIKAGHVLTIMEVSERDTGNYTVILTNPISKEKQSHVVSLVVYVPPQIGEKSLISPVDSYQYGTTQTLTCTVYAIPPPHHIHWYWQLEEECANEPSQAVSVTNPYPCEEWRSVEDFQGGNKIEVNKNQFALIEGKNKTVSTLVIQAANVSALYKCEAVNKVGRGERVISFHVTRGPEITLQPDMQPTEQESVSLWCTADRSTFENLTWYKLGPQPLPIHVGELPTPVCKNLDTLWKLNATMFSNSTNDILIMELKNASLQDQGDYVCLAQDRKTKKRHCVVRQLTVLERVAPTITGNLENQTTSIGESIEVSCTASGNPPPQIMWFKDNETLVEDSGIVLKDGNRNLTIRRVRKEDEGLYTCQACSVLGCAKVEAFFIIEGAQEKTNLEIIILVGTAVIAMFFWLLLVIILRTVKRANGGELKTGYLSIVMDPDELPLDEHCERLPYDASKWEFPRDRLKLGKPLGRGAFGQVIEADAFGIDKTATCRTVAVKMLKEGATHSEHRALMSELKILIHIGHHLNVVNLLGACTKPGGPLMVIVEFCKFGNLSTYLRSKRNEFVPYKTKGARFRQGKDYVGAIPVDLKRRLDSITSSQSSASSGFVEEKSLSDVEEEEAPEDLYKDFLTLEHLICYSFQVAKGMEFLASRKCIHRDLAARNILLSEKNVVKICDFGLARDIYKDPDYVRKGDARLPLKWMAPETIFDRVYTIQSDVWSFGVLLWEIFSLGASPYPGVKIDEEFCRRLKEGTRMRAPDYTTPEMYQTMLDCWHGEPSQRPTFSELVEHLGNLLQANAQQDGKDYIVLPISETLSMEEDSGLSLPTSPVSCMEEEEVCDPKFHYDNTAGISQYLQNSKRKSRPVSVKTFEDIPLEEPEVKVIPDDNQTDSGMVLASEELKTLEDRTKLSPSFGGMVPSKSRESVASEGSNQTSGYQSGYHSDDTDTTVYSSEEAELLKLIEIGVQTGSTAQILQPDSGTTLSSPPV
Outline: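 Cells seeded, grown 24 h at 37 °C, starved 24 h serum-free; cpd 8-pt curve, 0.3% DMSO, 1 h; VEGF165 100 ng/mL, 5 min; cold PBS wash, lysis with orthovanadate and protease/phosphatase inhibitors; pKDR ELISA; IC50 by 4-parameter logistic regression.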

[3] = biological target: Human MET (residues 956-1390) (Homo sapiens (Human), UniProt P08581); experiment: Human Met kinase assay, HTRF KinEase (Example D-2); format: biochemical; details: protocol of Example D-2 (other compounds); read-out: c-Met IC50
Sequence of Human MET (residues 956-1390) (P08581 956-1390): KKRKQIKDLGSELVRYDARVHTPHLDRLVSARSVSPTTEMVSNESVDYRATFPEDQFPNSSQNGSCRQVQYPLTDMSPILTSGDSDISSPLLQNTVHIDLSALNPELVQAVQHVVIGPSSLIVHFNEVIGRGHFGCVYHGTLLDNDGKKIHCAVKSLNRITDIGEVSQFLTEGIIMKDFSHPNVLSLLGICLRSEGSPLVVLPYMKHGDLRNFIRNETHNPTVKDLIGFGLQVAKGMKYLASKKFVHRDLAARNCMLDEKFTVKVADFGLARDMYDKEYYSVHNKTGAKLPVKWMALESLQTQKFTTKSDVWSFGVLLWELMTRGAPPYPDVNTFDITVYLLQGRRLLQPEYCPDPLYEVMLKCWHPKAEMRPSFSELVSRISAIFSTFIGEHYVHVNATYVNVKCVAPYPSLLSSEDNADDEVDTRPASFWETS
Outline: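 MET kinase domain (956-1390), 0.1 ng/well, in buffer with 5 mM MgCl2, 1 mM DTT and 1 mM MnCl2, phosphorylated a biotinylated peptide at ATP Km for 40 min at RT; 10 concentrations, 3% DMSO final. EDTA-stopped HTRF read after 60 min; IC50 from a 4-parameter logistic fit.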

Sequence of Met (phospho-Met, HGF-stimulated PC-3 prostate cancer cells) (P08581 25-1390): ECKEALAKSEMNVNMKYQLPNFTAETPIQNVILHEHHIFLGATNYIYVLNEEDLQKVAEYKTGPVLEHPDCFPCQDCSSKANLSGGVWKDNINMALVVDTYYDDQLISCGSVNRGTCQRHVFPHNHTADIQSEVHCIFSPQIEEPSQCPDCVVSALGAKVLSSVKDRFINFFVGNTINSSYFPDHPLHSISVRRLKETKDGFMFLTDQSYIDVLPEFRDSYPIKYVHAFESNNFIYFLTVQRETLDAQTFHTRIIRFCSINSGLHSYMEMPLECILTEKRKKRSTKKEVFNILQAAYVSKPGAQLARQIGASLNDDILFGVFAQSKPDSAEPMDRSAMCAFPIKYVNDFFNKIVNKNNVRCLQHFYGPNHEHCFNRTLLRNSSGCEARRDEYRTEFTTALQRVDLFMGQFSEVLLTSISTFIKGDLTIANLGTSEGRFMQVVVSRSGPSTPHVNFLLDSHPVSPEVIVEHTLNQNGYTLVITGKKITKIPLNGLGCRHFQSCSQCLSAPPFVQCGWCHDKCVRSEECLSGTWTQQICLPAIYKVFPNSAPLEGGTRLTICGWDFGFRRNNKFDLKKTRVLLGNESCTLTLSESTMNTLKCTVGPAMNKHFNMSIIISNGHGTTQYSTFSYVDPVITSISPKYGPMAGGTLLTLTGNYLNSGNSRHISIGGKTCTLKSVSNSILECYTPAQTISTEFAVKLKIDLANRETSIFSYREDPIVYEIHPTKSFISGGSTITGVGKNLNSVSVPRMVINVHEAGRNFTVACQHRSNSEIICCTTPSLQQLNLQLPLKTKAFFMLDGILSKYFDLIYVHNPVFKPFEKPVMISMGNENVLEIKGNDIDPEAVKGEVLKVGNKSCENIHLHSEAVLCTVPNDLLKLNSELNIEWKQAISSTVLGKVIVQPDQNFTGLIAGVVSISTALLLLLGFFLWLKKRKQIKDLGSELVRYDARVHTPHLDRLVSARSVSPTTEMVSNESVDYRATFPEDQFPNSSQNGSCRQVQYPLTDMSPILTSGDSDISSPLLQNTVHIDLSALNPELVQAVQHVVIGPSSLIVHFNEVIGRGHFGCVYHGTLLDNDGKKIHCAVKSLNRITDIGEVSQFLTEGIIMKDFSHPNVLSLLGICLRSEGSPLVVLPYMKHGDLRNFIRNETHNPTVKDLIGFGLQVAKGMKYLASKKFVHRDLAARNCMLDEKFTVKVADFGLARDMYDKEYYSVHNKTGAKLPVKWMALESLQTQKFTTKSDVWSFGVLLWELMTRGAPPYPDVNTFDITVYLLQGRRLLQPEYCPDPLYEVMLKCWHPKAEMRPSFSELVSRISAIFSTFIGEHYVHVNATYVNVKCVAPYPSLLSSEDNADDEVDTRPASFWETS

Row | SMILES | IC50 [1] | IC50 [2] | IC50 [3]
1 | COc1cc2nccc(Oc3ccc(NC(=O)c4cn(C)c(Cl)c(-c5ccc(F)cc5)c4=O)cc3F)c2nc1OC [Compound 412, 6-chloro-N-[4-[(6,7-dimethoxy-1,5-naphthyridin-4-yl)oxy]-3-fluorophenyl]-5-(4-fluorophenyl)-1-methyl-4-oxopyridine-3-carboxamide] | < 100 nM | < 100 nM | < 100 nM
2 | COc1cc2nccc(Oc3ncc(NC(=O)c4cn(-c5cnn(C)c5)cc(-c5ccc(F)cc5)c4=O)cc3F)c2cc1OC [Compound 401, N-[6-(6,7-dimethoxyquinolin-4-yl)oxy-5-fluoropyridin-3-yl]-5-(4-fluorophenyl)-1-(1-methylpyrazol-4-yl)-4-oxopyridine-3-carboxamide] | < 100 nM | > 300 nM | < 100 nM
3 | COc1cnc2c(Oc3ccc(NC(=O)c4c(C)ncc(-c5ccc(F)cc5)c4O)cc3F)ccnc2c1 [Compound 80, N-[3-Fluoro-4-[(7-methoxy-1,5-naphthyridin-4-yl)oxy]phenyl]-5-(4-fluorophenyl)-4-hydroxy-2-methylpyridine-3-carboxamide] | < 100 nM | < 100 nM | < 100 nM
4 | COc1cc2nccc(Oc3ccc(NC(=O)c4cnc(CO)c(-c5ccc(F)cc5)c4O)cc3F)c2nc1OC [Compound 71, N-[4-[(6,7-Dimethoxy-1,5-naphthyridin-4-yl)oxy]-3-fluorophenyl]-5-(4-fluorophenyl)-4-hydroxy-6-(hydroxymethyl)pyridine-3-carboxamide] | < 100 nM | < 100 nM | < 100 nM
5 | COc1cc2nccc(Oc3ccc(NC(=O)c4cn(C5CC5)c(C)c(-c5ccc(F)cc5C)c4=O)cc3)c2nc1OC [Compound 440, 1-cyclopropyl-N-[4-[(6,7-dimethoxy-1,5-naphthyridin-4-yl)oxy]phenyl]-5-(4-fluoro-2-methylphenyl)-6-methyl-4-oxopyridine-3-carboxamide] | < 100 nM | > 300 nM | < 100 nM

More lines, now with the values ahead:

Row | IC50 [1] | IC50 [2] | IC50 [3] | SMILES
6 | < 100 nM | > 300 nM | < 100 nM | COc1ccc2nccc(Oc3ccc(NC(=O)c4cn(C5CC5)c(C)c(-c5ccc(F)cc5)c4=O)cc3F)c2n1 [Compound 435, 1-cyclopropyl-N-[3-fluoro-4-[(6-methoxy-1,5-naphthyridin-4-yl)oxy]phenyl]-5-(4-fluorophenyl)-6-methyl-4-oxopyridine-3-carboxamide]
7 | < 100 nM | 100 to 300 nM | < 100 nM | COc1cc2nccc(Oc3ccc(NC(=O)c4nn(C)c(C)c(-c5ccc(F)cc5)c4=O)cc3)c2nc1OC [Compound 91, N-[4-[(6,7-Dimethoxy-1,5-naphthyridin-4-yl)oxy]phenyl]-5-(4-fluorophenyl)-1,6-dimethyl-4-oxopyridazine-3-carboxamide]
8 | < 100 nM | < 100 nM | < 100 nM | COCCOc1nc2c(Oc3ccc(NC(=O)c4cnc(C)c(-c5ccc(F)cc5)c4O)cc3F)ccnc2cc1C [Compound 436, N-[3-fluoro-4-[[6-(2-methoxyethoxy)-7-methyl-1,5-naphthyridin-4-yl]oxy]phenyl]-5-(4-fluorophenyl)-4-hydroxy-6-methylpyridine-3-carboxamide]
9 | < 100 nM | < 100 nM | < 100 nM | COc1cnc2c(Oc3ccc(NC(=O)c4cnc(C)c(-c5ccc(F)cc5)c4O)cc3F)ccnc2c1 [Compound 64, N-[3-Fluoro-4-[(7-methoxy-1,5-naphthyridin-4-yl)oxy]phenyl]-5-(4-fluorophenyl)-4-hydroxy-6-methylpyridine-3-carboxamide]
10 | < 100 nM | < 100 nM | < 100 nM | Cc1cc(F)ccc1-c1c(C)nc(C)c(C(=O)Nc2ccc(Oc3ccnc4cc(C)c(F)nc34)c(F)c2)c1O [Compound 428, N-[3-fluoro-4-[(6-fluoro-7-methyl-1,5-naphthyridin-4-yl)oxy]phenyl]-5-(4-fluoro-2-methylphenyl)-4-hydroxy-2,6-dimethylpyridine-3-carboxamide]
